# Measurements: patent US20180282735A1, “PHARMACEUTICAL COMPOSITION FOR NEURODEGENERATIVE BRAIN DISEASE AND SCREENING METHOD FOR THE SAME” (MACROGEN, INC., priority 2017, published 2018)
# Key:
# [1] = tested on: SH-SY5Y tau-BiFC cells; type: cell-based; conditions: for level of tau phosphorylation: SH-SY5Y Tau-BiFC cell line, FIG. 5b; for dose dependence of tau phosphorylation level: SH-SY5Y Tau-BiFC, various concentrations, 29 hours, FIG. 5c; for tau accumulation (tau-BiFC): SH-SY5Y tau-BiFC, FIG. 5
# Text: (§1) The establishment of the HEK293/tau-BiFC cell line was previously described (Tak H, Hague M M, Kim M J, Lee J H, Baik J H, Kim Y et al. Himolecular fluorescence complementation; lighting-up Tau-Tau interaction in living cells. PLOS One 2013; 8: e81682). Venus fluorescence protein amino-terminal fragment (VN 173) and carboxyl-terminal fragment (VC 155), which are independently non-fluorescent, were fused to full-length tau proteins. For neuronal cell expression, tau-BiFC constructs (pCMV6-hTau40-VN173 and pCMV6-hTau-VC155) were transfected into SH-SY5Y. SH-SY5Y/tau-BiFC stable cells were selected using Geneticin (200 μg/ml). […] All established cell lines were grown in Dulbecco's modified eagle medium containing 10% fetal bovine serum, […] and 1 μg/ml of Geneticin at 37° C. in a humidified atmosphere containing 5% CO2.
# (§2) For microscopic image analysis, HEK293 tau-BiFC and SH-SY5Y tau-BiFC cells were plated onto a black 384-well plate. The next day, tau-BiFC cells were treated with okadaic acid (O8010, Sigma), cyclosporine A (C3662, Sigma) or deltamethrin (D9315, Sigma) at various concentrations. After incubation for 29 hours, the plate was imaged using the Operetta® high contents imaging system (PerkinElmer). The cellular intensities of tau-BiFC fluorescence were analyzed using the Harmony® 3.1 analysis software. Each experiment was performed in triplicate. The bar graphs for BiFC intensity indicate the means ±SEM from three independent experiments.
# [2] = tested on: HEK293 tau-BiFC cells; type: cell-based; conditions: for level of tau phosphorylation: HEK293 Tau-BiFC cell line, FIG. 5b; for tau accumulation (tau-BiFC): HEK293 tau-BiFC, FIG. 5
# Text: as §1, §2
# [3] = target: T1, PP2B (Homo sapiens, UniProt Q08209); conditions: by binding to cyclophilin or FKBP respectively; cited from earlier work
# T1 construct: endogenous in cells; host or cells: SH-SY5Y/tau-BiFC and HEK293/tau-BiFC cells
molecule,measurement,setting,value
CC1(C)[C@H](C(=O)O[C@H](C#N)c2cccc(Oc3ccccc3)c2)[C@@H]1C=C(Br)Br [deltamethrin],level of tau phosphorylation,[1],increased
same,dose dependence of tau phosphorylation level,[1],declining trend after the threshold of 3 μM
same,tau accumulation (tau-BiFC),[1],increase of tau accumulation
same,level of tau phosphorylation,[2],increased
same,tau accumulation (tau-BiFC),[2],increase of tau accumulation
C=C1[C@@H](O)[C@@H]2O[C@]3(CC[C@H](/C=C/[C@@H](C)[C@@H]4CC(C)=C[C@@]5(O[C@H](C[C@@](C)(O)C(=O)O)CC[C@H]5O)O4)O3)CC[C@H]2O[C@@H]1[C@@H](O)C[C@H](C)[C@H]1O[C@@]2(CCCCO2)CC[C@H]1C [okadaic acid],level of tau phosphorylation,[1],increased
same,dose dependence of tau phosphorylation level,[1],elevated the level of tau phosphorylation in a dose-dependent manner
same,tau accumulation (tau-BiFC),[1],increase of tau accumulation
same,level of tau phosphorylation,[2],increased
same,intensity of tau phosphorylation,"[2]; HEK 293 cell line, FIG. 5d",higher intensity of tau phosphorylation
same,tau accumulation (tau-BiFC),[2],increase of tau accumulation
cyclosporine A,enzyme activity inhibition,[3],inhibits specifically enzyme activity
same,level of tau phosphorylation,[1],increased
same,dose dependence of tau phosphorylation level,[1],elevated the level of tau phosphorylation in a dose-dependent manner
same,tau accumulation (tau-BiFC),[1],increase of tau accumulation
same,level of tau phosphorylation,[2],increased
same,tau accumulation (tau-BiFC),[2],increase of tau accumulation
